For one test, the target named is Neutrophil collagenase (Homo sapiens, UniProt P22894). The note with it: read-out: log(1/IC50) (converted).
Chain of Neutrophil collagenase (P22894 whole entry): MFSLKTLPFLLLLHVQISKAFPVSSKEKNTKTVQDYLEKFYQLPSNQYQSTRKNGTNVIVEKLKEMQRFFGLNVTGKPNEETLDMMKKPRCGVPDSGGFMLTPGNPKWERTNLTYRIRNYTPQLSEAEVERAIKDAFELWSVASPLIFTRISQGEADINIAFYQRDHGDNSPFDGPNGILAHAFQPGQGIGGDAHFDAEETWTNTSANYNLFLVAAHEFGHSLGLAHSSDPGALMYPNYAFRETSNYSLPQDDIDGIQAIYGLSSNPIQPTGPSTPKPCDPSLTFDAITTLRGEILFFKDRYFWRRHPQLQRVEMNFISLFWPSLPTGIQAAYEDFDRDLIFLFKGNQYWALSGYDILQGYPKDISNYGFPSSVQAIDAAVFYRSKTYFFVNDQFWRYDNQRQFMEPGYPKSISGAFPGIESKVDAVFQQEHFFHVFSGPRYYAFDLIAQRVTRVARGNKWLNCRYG
For the molecule `COCCOC(=O)N1CCC(C(C(=O)O)N(Cc2cccnc2)S(=O)(=O)c2ccc(-c3ccc(OC)cc3)cc2)CC1` (configuration not stated), the IC50 was 3.24 nM.

The target in a further test is T1, Matrilysin (Homo sapiens, UniProt P09237).
T1 sequence (P09237 whole entry): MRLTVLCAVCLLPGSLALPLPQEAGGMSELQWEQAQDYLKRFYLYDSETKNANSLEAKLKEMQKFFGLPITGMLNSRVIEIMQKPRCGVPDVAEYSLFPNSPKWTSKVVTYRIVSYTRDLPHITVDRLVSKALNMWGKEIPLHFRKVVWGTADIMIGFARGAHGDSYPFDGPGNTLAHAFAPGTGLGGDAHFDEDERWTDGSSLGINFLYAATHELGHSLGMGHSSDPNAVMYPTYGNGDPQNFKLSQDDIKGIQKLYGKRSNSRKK
Conditions: read-out: log(1/IC50) (converted).
For the molecule `CCOc1ccc(S(=O)(=O)N2CC(N3C(=O)CN(C)C3=O)C[C@@H]2C(=O)NO)cc1` (some centres not stated), the IC50 is 7590 nM.
As to `CCCOc1ccc(S(=O)(=O)N2CC(N3C(=O)CN(C)C3=O)C[C@@H]2C(=O)NO)cc1` (some centres not stated), the IC50 is 2570 nM.
The same measure, in the same setting: the same measure for `COCCOc1ccc(S(=O)(=O)N2CC(N3C(=O)CN(C)C3=O)C[C@@H]2C(=O)NO)cc1` (some centres not stated): 9120 nM.
On the same count and under the same terms, the figure for `CN1CC(=O)N(C2C[C@H](C(=O)NO)N(S(=O)(=O)c3ccc(Oc4ccccc4)cc3)C2)C1=O` (some centres not stated) is 309 nM.
Same read-out and setting: the figure for `CN1CC(=O)N(C2C[C@H](C(=O)NO)N(S(=O)(=O)c3ccc(Oc4ccncc4)cc3)C2)C1=O` (some centres not stated) is 7410 nM; for `CC(C)COc1ccc(S(=O)(=O)N2CC(N3C(=O)CN(C)C3=O)C[C@@H]2C(=O)NO)cc1` (some centres not stated) it is 2290 nM.
Regarding `CCCCOc1ccc(S(=O)(=O)N2CC(N3C(=O)CN(C)C3=O)C[C@@H]2C(=O)NO)cc1` (some centres not stated), the IC50 was 1580 nM.

The next test concerns the target Collagenase 3 (Homo sapiens, UniProt P45452).
Settings: not given
Molecule `COc1ccc(S(=O)(=O)N2CCN(C(=O)C(O)C(C)C)CC2C(=O)NO)cc1` (configuration not stated) had an IC50 of 1 nM.
`COc1ccc(S(=O)(=O)N2CCN(C(=O)c3nnsc3C)CC2C(=O)NO)cc1` (configuration not stated) showed an IC50 of 20.9 nM.
Still for that read-out and setting: the figure for `COCCOC(=O)N1CCC(C(C(=O)O)N(Cc2cccnc2)S(=O)(=O)c2ccc(-c3ccc(OC)cc3)cc2)CC1` (configuration not stated) is 3.02 nM; for `COc1ccc(S(=O)(=O)N2CCCN(C(=O)CNOC(=O)C(C)(C)C)CC2C(=O)NO)cc1` (configuration not stated) it is 15.8 nM.
